Measurements from patent US8691811B2, “Quinazolinone linked pyrrolo[2,1-c][1,4]benzodiazepine hybrids as potential anticancer agents and process for the preparation thereof” (Council of Scientific & Industrial Research, priority 2008, dated 2014).
pIC50: −log10 of the molar value.

How the values were obtained:
[1] = system: breast cancer cell lines (MCF7, Zr-75-1); assay: Tata protocol cytotoxicity (SRB, 48 h), breast panel; format: cell-based; details: Homo sapiens; range over the panel; exposure period of at least 48 hrs; read-out: IC50, in vitro activity against breast
Protocol: (§1) The C8-linked quinazolinone-PBD hybrids (5b, 5c, 5k, 5l, 5m) have been tested against eleven human tumour cell lines derived from seven cancer types (lung cancer, colon cancer, cervix, ovarian cancer, oral cancer, prostate cancer and breast cancer) as per Tata protocol. For each compound, dose response curves for individual cell lines have been measured at a minimum of five concentrations at 10 fold dilutions. A protocol of 48 h continuous drug exposure has been used, and a sulforhodamine B (SRB) protein assay was used to estimate cell viability or growth. Compounds 5b, 5c, 5k, 5l, 5m have been evaluated for their in vitro cytotoxicity in eleven cell lines from seven human cancer types of lung (Hop-62, A-549) colon (COLO-205) cervix (Si-Ha), ovary (A-2780), prostate (PC3) breast (MCF7, Zr-75-1), oral (DWD, GURAV, KB). The results are expressed as percent of cell growth determined relative to that of untreated control cells (Table-4).

A-549 = assay: Tata protocol cytotoxicity (SRB, 48 h), A-549; format: cell-based, human
Protocol: as §1

[2] = system: eleven human tumour cell lines; assay: Tata protocol in vitro cytotoxicity (SRB, 48 h), all cell lines; format: cell-based; details: bound over all eleven cell lines, read-out: GI50 value against eleven cell lines in seven cell panels
Protocol: as §1

GURAV = assay: Tata protocol cytotoxicity (SRB, 48 h), GURAV; format: cell-based, human; details: oral
Protocol: as §1

PC-3 = assay: Tata protocol cytotoxicity (SRB, 48 h), PC-3; format: cell-based, human; details: PC-3, prostate
Protocol: as §1

HOP-62 = assay: Tata protocol cytotoxicity (SRB, 48 h), HOP-62; format: cell-based, human; details: HOP-62, lung
Protocol: as §1

Si-Ha = assay: Tata protocol cytotoxicity (SRB, 48 h), Si-Ha; format: cell-based, human; details: cervix
Protocol: as §1

[3] = system: colon cancer cell line (COLO-205); assay: Tata protocol cytotoxicity (SRB, 48 h), colon panel; format: cell-based; details: Homo sapiens, exposure period of at least 48 hrs, read-out: GI50, in vitro activity against colon
Protocol: as §1

Zr-75-1 = assay: Tata protocol cytotoxicity (SRB, 48 h), Zr-75-1; format: cell-based, human; details: Zr-75-1, breast
Protocol: as §1

[4] = system: ovarian cancer cell line (A-2780); assay: Tata protocol cytotoxicity (SRB, 48 h), ovarian panel; format: cell-based; details: Homo sapiens, A2780; exposure period of at least 48 hrs; read-out: GI50, in vitro activity against ovarian
Protocol: as §1

A-2780 = assay: Tata protocol cytotoxicity (SRB, 48 h), A-2780; format: cell-based, human
Protocol: as §1

[5] = system: lung cancer cell lines (Hop-62, A-549); assay: Tata protocol cytotoxicity (SRB, 48 h), lung panel; format: cell-based; details: Homo sapiens; range over the panel; exposure period of at least 48 hrs; read-out: GI50, in vitro activity against lung
Protocol: as §1

[6] = system: prostate cancer cell line (PC3); assay: Tata protocol cytotoxicity (SRB, 48 h), prostate panel; format: cell-based; details: Homo sapiens; exposure period of at least 48 hrs; read-out: GI50, in vitro activity against prostate
Protocol: as §1

[7] = system: duplex-form calf thymus DNA (CT-DNA); assay: Thermal denaturation studies with calf thymus DNA; format: binding; details: [PBD]:[DNA] molar ratio 1:5, CT-DNA 100 μM, ligand 20 μM, pH 7.00
Protocol: Compounds have been subjected to thermal denaturation studies with duplex-form calf thymus DNA (CT-DNA) using a modification of a reported procedure. Working solutions in aqueous buffer ([…] NaH2PO4/Na2HPO4, 1 mM Na2EDTA, pH 7.00+0.01). containing CT-DNA (100 μm in phosphate) and the PBD (20 μm) have been prepared by addition of concentrated PBD solutions in DMSO to obtain a fixed [PBD]/[DNA] molar ratio of 1:5. The DNA-PBD solutions have been incubated at 37° C. for 0 and 18 hrs prior to analysis. Samples have been monitored at 260 nm using a Beckman DU-800 spectrophotometer fitted with high performance temperature controller, and heated at 1° C. min^−1 in the 40-110° C. range. DNA helix→coil transition temperatures (Tm) have been obtained from the maxima in the d(A260)/dT derivative plots. Drug-induced alterations in DNA melting behavior are given by: ΔTm=Tm(DNA+PBD)−Tm(DNA alone), where the Tm value for the PBD-free CT-DNA is 68.5±0.01.
The DNA-binding for these novel C8-linked quinazolinone-PBD hybrids has been examined by thermal denaturation studies using calf thymus (CT) DNA. […] Data for 5b, 5c, 5d, and 5k, 5l, 5m and DC-81 are included in Table 5 for comparison.

MCF7 = assay: Tata protocol cytotoxicity (SRB, 48 h), MCF7; format: cell-based, human; details: MCF7, breast
Protocol: as §1

Colo-205 = assay: Tata protocol cytotoxicity (SRB, 48 h), Colo-205; format: cell-based, human; details: Colo-205, colon
Protocol: as §1

KB = assay: Tata protocol cytotoxicity (SRB, 48 h), KB; format: cell-based, human; details: oral
Protocol: as §1

DWD = assay: Tata protocol cytotoxicity (SRB, 48 h), DWD; format: cell-based, human; details: oral
Protocol: as §1

| SMILES | ΔTm after incubation at 37° C. for 0 h [7] [°C] | ΔTm after incubation at 37° C. for 18 h [7] [°C] | GI50 (A-549; A-549, lung) [µM] | GI50 (GURAV) [µM] | GI50 (PC-3) [µM] | GI50 (HOP-62) [µM] | GI50 (Si-Ha) [µM] | GI50 (Zr-75-1) [µM] | GI50 (A-2780; A-2780, ovary) [µM] | GI50 (MCF7) [µM] | GI50 (Colo-205) [µM] | GI50 (KB) [µM] | GI50 (DWD) [µM] | also measured |
| --- | --- | --- | --- | --- | --- | --- | --- | --- | --- | --- | --- | --- | --- | --- |
| COc1cc2c(cc1OCCCOc1ccc(-n3c(C)nc4ccccc4c3=O)cc1)N=C[C@@H]1CCCN1C2=O [5b, 7-methoxy-8{-3-[4-(2-methyl-4-oxo-3,4-dihydro-3-quinazolinyl)phenoxy]propoxy}-(11aS)-1,2,3,11a-tetrahydro-5H-pyrrolo[2,1-c][1,4]benzodiazepine-5-one] | 1.0 | 2.0 |  |  |  |  |  |  |  |  |  |  |  | pIC50 [1]: 5.74 to 6.80; GI50 (A-549; Homo sapiens, A549, A-549, lung): 1.48 µM; GI50 [2]: < 1.83 µM; GI50 (GURAV; Homo sapiens): 0.13 µM; GI50 (PC-3; Homo sapiens): 0.13 µM; GI50 (HOP-62; Homo sapiens): 0.16 µM; GI50 (Si-Ha; Homo sapiens, SiHa): 0.16 µM; GI50 [3]: 0.14 µM; GI50 (Zr-75-1; Homo sapiens): 0.16 µM; GI50 [4]: 0.1 µM; GI50 (A-2780; Homo sapiens, A2780, A-2780, ovary): 0.1 µM; GI50 [5]: 0.16 to 1.48 µM; GI50 [6]: 0.13 µM; GI50 (MCF7; Homo sapiens): 1.83 µM; GI50 (Colo-205; Homo sapiens): 0.14 µM; GI50 (KB; Homo sapiens): 0.15 µM; GI50 (DWD; Homo sapiens): 0.11 µM |
| COc1cc2c(cc1O)N=CC1CCCN1C2=O (stereo not drawn) [DC-81, reference compound] | 0.3 | 0.7 |  |  |  |  |  |  |  |  |  |  |  |  |
| COc1cc2c(cc1OCCCCOc1ccc(-n3c(C)nc4ccccc4c3=O)cc1)N=C[C@@H]1CCCN1C2=O [5c, 7-methoxy-8{-4-[4-(2-methyl-4-oxo-3,4-dihydro-3-quinazolinyl)phenoxy]butoxy-}-(11aS)-1,2,3,11a-tetrahydro-5H-pyrrolo[2,1-c][1,4]benzodiazepine-5-one] | 1.0 | 2.1 | 1.93 | 1.95 | 0.17 | 1.95 | 1.91 | 1.97 | 0.16 | 2.3 | 1.81 | 1.98 | 1.6 |  |
| COc1cc2c(cc1OCCCOc1ccc(-n3c(/C=C/c4ccccc4)nc4ccccc4c3=O)cc1)N=C[C@@H]1CCCN1C2=O [5k, 7-methoxy-8-{3-[(4-4-oxo-2-[(E)-2-phenyl-1-ethenyl]-3,4-dihydro-3-quinazolinylphenyl)oxy]propoxy}-(11aS)-1,2,3,11a-tetrahydro-5H-pyrrolo[2,1-c][1,4]benzodiazepine-5-one] | 1.0 | 2.0 | 1.88 | 1.85 | 0.16 | 2.15 | 2 | 0.17 | 0.14 | 2.03 | 2.12 | 1.78 | 0.14 |  |
| COc1cc2c(cc1OCCCCCOc1ccc(-n3c(/C=C/c4ccccc4)nc4ccccc4c3=O)cc1)N=C[C@@H]1CCCN1C2=O [5m, 7-methoxy-8-{5-[(4-4-oxo-2-[(E)-2-phenyl-1-ethenyl]-3,4-dihydro-3-quinazolinylphenyl)oxy]pentyloxy}-(11aS)-1,2,3,11a-tetrahydro-5H-pyrrolo[2,1-c][1,4]benzodiazepine-5-one] | 1.1 | 2.1 | 2.62 | 1.82 | 1.83 | 2.31 | 2.08 | 2.09 | 0.15 | 2.5 | 2 | 2.15 | 0.17 |  |
| COc1cc2c(cc1OCCCCOc1ccc(-n3c(/C=C/c4ccccc4)nc4ccccc4c3=O)cc1)N=C[C@@H]1CCCN1C2=O [5l, 7-methoxy-8-{4-[(4-4-oxo-2-[(E)-2-phenyl-1-ethenyl]-3,4-dihydro-3-quinazolinylphenyl)oxy]butoxy}-(11aS)-1,2,3,11a-tetrahydro-5H-pyrrolo[2,1-c][1,4]benzodiazepine-5-one] | 1.2 | 2.3 | 2.39 | 1.93 | 1.91 | 2.33 | 2.19 | 2.44 | 0.16 |  | 2.23 | 2.07 | 0.16 |  |
